According to paper PMC5144158 (Chemical research in toxicology, 2016):
Entries after “also recorded” stand apart in the source; their conditions may differ. Read-outs that look alike come from different tables or passages of the source.

Columns and labels:
[1] = molecular target: T1, hCAR2 (Homo sapiens, UniProt Q14994); assay: Transactivation luciferase reporter assay in COS-1 cells, CMV2-CAR2; type: cell-based; settings: for activation of hCAR2 (screen): COS-1, 2B6-XREM-PBREM reporter, Figure 2; for activation of hCAR2 (dose–response): COS-1, 24 h
T1 sequence (Q14994 1-352): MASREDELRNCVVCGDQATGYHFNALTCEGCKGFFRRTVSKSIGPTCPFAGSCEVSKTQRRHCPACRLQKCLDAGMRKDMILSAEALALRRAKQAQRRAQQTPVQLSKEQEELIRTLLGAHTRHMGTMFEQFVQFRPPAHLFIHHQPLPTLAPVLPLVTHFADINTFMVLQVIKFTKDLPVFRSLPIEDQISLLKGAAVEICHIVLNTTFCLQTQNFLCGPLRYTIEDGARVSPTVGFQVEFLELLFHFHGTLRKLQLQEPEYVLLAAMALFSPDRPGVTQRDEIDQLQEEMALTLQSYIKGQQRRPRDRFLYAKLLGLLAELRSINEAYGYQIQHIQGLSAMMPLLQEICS
T1 sequence (P19793 1-462 partner): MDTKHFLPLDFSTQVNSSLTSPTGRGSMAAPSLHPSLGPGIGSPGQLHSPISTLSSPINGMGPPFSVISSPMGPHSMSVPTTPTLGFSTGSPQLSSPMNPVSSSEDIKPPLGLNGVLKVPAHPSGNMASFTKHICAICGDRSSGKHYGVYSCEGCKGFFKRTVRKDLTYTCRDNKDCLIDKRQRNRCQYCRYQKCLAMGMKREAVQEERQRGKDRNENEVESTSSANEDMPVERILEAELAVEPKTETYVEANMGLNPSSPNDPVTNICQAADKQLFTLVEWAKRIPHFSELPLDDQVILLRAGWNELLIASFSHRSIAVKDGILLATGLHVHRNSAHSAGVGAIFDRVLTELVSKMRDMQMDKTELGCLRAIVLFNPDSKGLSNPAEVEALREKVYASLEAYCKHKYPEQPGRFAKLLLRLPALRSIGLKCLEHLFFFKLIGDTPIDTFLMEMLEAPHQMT

[2] = molecular target: T2, hCAR1 (Homo sapiens, UniProt Q14994); assay: Transactivation luciferase reporter assay in COS-1 cells, CMV2-CAR1; type: cell-based; settings: COS-1, 2B6-XREM-PBREM reporter, ANDRO 10 μM, 24 h, Figure 2
T2 sequence (Q14994 1-348 isoform Q14994-2): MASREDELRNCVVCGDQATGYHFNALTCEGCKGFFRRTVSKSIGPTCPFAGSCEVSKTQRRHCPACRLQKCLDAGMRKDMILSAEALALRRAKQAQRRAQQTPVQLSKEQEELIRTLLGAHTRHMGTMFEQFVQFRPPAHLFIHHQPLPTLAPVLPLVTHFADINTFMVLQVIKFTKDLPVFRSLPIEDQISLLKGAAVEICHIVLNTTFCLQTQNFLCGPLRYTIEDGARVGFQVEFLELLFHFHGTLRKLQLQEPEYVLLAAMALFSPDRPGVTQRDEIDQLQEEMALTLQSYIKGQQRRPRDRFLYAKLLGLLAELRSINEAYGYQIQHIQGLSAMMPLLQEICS

[3] = molecular target: T3, hCAR3 (Homo sapiens, UniProt Q14994, DEL233-236); assay: Transactivation luciferase reporter assay in COS-1 cells, CMV2-CAR3; type: cell-based; settings: COS-1, 2B6-XREM-PBREM reporter, 24 h, Figure 2
T3 sequence (Q14994 with tags, fused parts or gaps isoform Q14994-8 DEL233-236): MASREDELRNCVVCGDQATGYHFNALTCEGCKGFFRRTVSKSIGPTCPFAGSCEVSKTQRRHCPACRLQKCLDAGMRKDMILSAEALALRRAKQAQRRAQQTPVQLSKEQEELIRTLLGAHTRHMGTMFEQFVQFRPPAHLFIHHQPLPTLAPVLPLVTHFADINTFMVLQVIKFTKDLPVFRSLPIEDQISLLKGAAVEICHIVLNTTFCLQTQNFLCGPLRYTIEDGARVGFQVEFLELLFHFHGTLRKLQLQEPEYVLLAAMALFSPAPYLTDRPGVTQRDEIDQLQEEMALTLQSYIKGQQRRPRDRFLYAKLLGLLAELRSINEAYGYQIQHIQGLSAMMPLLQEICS
T3 sequence (P19793 1-462 partner): T1 sequence (P19793 1-462 partner)

[4] = tested on: hPPARα, hPPARβ/∂, and hPPARγ; assay: PPRE reporter transactivation assays, statements on the hPPARs collectively; type: cell-based, human
[5] = tested on: Wild-type mice; settings: PPARα knockout mice not protected, ref [59]; cited from earlier work
[6] = tested on: rodent PPAR and CAR target genes; settings: in vivo rodent studies, ref [29],[30]; cited from earlier work
[7] = tested on: male rodents; settings: varying treatment modalities, ref [5]–[7]; cited from earlier work
[8] = tested on: female rodents; settings: ref [8]; cited from earlier work
[9] = molecular target: T4, hPXR (Homo sapiens, UniProt O75469); assay: Transactivation luciferase reporter assay in COS-1 cells, CMV2-PXR; settings: for activation of hPXR (screen): COS-1, 2B6-XREM-PBREM reporter, Figure 2
T4 sequence (O75469 1-434): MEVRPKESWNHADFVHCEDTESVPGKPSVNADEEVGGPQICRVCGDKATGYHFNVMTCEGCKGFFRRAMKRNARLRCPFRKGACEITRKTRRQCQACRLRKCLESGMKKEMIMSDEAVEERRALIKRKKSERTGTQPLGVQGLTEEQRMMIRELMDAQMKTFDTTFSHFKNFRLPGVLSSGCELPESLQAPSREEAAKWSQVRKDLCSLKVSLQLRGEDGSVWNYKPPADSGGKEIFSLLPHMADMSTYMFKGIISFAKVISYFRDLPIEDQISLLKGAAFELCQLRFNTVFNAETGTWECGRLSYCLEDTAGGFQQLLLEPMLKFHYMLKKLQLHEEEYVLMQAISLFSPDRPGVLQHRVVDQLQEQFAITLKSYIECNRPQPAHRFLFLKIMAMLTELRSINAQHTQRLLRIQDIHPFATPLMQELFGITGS
T4 sequence (P19793 1-462 partner): T1 sequence (P19793 1-462 partner)

[10] = molecular target: T5, hPPARα (Homo sapiens, UniProt Q07869); type: cell-based; settings: COS-1, 24 h, Figure 4A
T5 sequence (Q07869 1-468): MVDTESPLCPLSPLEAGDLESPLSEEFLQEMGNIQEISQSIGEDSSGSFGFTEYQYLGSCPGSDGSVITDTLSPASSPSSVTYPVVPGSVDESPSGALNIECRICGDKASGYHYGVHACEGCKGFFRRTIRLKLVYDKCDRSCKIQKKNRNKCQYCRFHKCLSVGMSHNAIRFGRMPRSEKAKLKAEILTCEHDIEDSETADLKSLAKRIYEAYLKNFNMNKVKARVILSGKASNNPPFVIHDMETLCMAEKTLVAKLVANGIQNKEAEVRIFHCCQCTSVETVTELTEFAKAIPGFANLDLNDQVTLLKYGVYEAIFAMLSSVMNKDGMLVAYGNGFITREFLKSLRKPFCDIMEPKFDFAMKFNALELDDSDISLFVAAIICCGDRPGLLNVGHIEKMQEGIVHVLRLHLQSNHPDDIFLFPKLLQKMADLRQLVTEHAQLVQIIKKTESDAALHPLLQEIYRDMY

[11] = molecular target: T6, hPPARβ/∂ (Homo sapiens, UniProt Q03181); type: cell-based; settings: COS-1, 24 h, Figure 4B
T6 sequence (Q03181 1-441): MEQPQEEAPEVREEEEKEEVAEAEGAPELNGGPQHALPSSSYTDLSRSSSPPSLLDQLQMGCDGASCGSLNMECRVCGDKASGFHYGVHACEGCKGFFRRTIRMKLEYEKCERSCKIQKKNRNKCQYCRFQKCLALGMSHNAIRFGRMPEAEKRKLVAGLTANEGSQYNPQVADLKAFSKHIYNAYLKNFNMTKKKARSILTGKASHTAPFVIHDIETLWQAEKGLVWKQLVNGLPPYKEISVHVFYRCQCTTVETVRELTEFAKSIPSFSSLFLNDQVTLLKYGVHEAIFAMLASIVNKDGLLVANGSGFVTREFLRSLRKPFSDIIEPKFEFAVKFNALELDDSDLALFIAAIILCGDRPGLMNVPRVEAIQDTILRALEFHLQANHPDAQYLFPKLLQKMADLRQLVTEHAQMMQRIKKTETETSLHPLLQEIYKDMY

[12] = molecular target: hCAR2 (Homo sapiens, UniProt Q14994); assay: Mammalian two-hybrid assay, CAR LBD with SRC1, COS-1 cells; type: cell-based; settings: COS-1, 24 h, Figure 5
[13] = molecular target: hPXR (Homo sapiens, UniProt O75469); assay: Mammalian two-hybrid assay, PXR LBD with SRC1, COS-1 cells; settings: COS-1, 24 h, Figure 5
[14] = tested on: PPAR target genes (ACOX1, ANGPTL4, CPT2, PDK4); assay: Primary human hepatocyte mRNA expression; type: cell-based; settings: primary human hepatocytes HH1–HH3, 24 h; for expression of PPAR target genes (overall): MEHP/MiNP 0.1–30 μM
[15] = tested on: 3T3L1 cells; settings: cited from earlier work
[16] = tested on: CYP2B6; assay: Primary human hepatocyte mRNA expression; settings: donor HH3, 30 μM, 24 h
[17] = tested on: hCAR variants and hPXR; settings: transactivation assays, ref [47]; cited from earlier work

With `CCCCC(CC)COC(=O)c1ccccc1C(=O)OCC(CC)CCCC` (centres unmarked) [DEHP, di(2-ethylhexyl) phthalate] the EC50 [1] was 0.1 µM, the “activation of hCAR2 (screen)” value ([1]; 24 h) was “activated hCAR2 and hPXR” and the “max fold activation (hCAR2)” value ([1]; COS-1, CYP2B6-PBREM-XREM reporter, 24 h, Figure 6/Table 4) was 7.1 fold. For the same compound, the “activation of hCAR1 (screen)” value [2] was “only minimal activity; also recorded: little or no activation of hCAR1”, the “activation of hCAR3 (screen)” value [3] was “only minimal activity” and the “activation of the PPRE reporter by hPPARs (screen)” value ([4]; COS-1, 24 h, Figure 3, effects only at highest test dose (100 μM)) was “neither DEHP nor DiNP activated the hPPARs”. For the same compound, the “activation of the hPPARs (dose–response, higher doses)” value ([4]; hPPARα and hPPARγ, higher doses than screening, data not shown) was “neither of the diphthalates activated the hPPARs”, the “phenotype on control diet or high fat diet” value [5] was “exhibited a lean phenotype” and the “activation of rodent PPAR and CAR target genes” value [6] was “activation of rodent PPAR and CAR target genes”. For the same compound, the “testosterone levels, reproductive organ weights, sperm counts, sperm motility” value [7] was “decrease testosterone levels, reproductive organ weights, sperm counts, and sperm motility”, the “estradiol levels and estrus cycle” value [8] was “Decreased estradiol levels and estrus cycle disruptions” and the EC50 [9] was 3.5 µM. The “activation of hPXR (screen)” value ([9]; 24 h) was “activated hCAR2 and hPXR” and the “max fold activation (hPXR)” value ([9]; COS-1, 3A4-XREM reporter, 24 h, Figure 6/Table 4) was 13.7 fold.

In the case of `O=C(O)c1ccccc1C(=O)OCc1ccccc1` [MBzP, monobenzyl phthalate], the “activation of hCAR2 (dose–response)” value ([1]; Figure 4A) is reported as “activated hCAR2 and PPARα with similar potency”, the “activation of hCAR2 (dose–response)” value ([1]; Figure 4B) is reported as “only minor activation” and the “activation of hPPARα (dose–response)” value [10] is reported as “activated hCAR2 and PPARα with similar potency”. The “activation of hPPARβ/∂ (dose–response)” value [11] was “only minor activation”, the “hCAR interaction with SRC1 / activation (mammalian two-hybrid)” value [12] was “no activation” and the “hPXR interaction with SRC1 / activation (mammalian two-hybrid)” value [13] was “no activation”. For the same compound, the “activation of hPXR (dose–response)” value ([9]; COS-1, 24 h, Figure 4B) was “only minor activation”.

For `CCCCC(CC)COC(=O)c1ccccc1C(=O)O` (centres unmarked) [MEHP, mono-(2-ethylhexyl)phthalate], the “activation of hCAR2 (screen)” value ([1]; 24 h) was “significant activation of hCAR2”, the “rank order potency across receptors” value ([1]; transactivation dose–response, Figure 4B) was “hCAR2 > hPXR > hPPARγ ≥ PPARβ/∂” and the “activation of hCAR1 (screen)” value [2] was “slight activation of hCAR1 and hCAR3 at the highest doses; also recorded: little or no activation of hCAR1”. The “activation of hCAR3 (screen)” value [3] was “slight activation of hCAR1 and hCAR3 at the highest doses”, the “activation of hPPARα (dose–response)” value [10] was “very little activation of hPPARα” and the “hCAR interaction with SRC1 / activation (mammalian two-hybrid)” value [12] was “interacted with SRC1 in a dose-dependent manner”. For the same compound, the “expression of PPAR target genes (overall)” value [14] was “Neither MEHP nor MiNP induced expression of any PPAR target genes; also recorded: no activation of PPAR target genes”, the “expression of PPARγ target genes involved in adipocyte differentiation” value ([15]; 3T3L1 cells, ref [42]) was “induced expression of PPARγ target genes” and the “cellular lipid and triglyceride content” value ([15]; 3T3L1 preadipocytes, ref [41],[42]) was “increased cellular lipid and triglyceride content”. For the same compound, the “CYP2B6 mRNA expression” value [16] was “increased expression of CYP2B6”, the “hPXR interaction with SRC1 / activation (mammalian two-hybrid)” value [13] was “interacted with SRC1 in a dose-dependent manner” and the “activation of hPXR (screen)” value ([9]; 24 h) was “moderate activation of hPXR”. The EC50 ([9]; read-out: EC50 (hPXR), COS-1, 3A4-XREM reporter, 24 h, Figure 6/Table 4) was 27 µM.

For `Cc1c(C)c2c(c(C)c1O)CCC(C)(COc1ccc(CC3SC(=O)NC3=O)cc1)O2` (centres unmarked) [TG, troglitazone], the “ANGPTL4 mRNA expression” value ([14]; 50 μM WY14643, 30 μM TG) was “inducing only ANG and CPT in HH3”, the “CPT2 mRNA expression” value ([14]; 50 μM WY14643, 30 μM TG) was “inducing only ANG and CPT in HH3” and the “expression of PPAR target genes (overall)” value [14] was “weak inducer of PPAR target genes”. The “activation of hCAR variants and hPXR” value [17] was “activates hCAR variants and hPXR”.
